Results published in patent US5834433A, “Compounds and pharmaceutical uses of peptides of bombesin and GRP” (Merrell Pharmaceuticals Inc., priority 1996, dated 1998).
Non-standard residues stand in square brackets, D forms with d. Residues, ends and D or L forms follow the SMILES beside them. *: point of attachment. Palmitoyl = CCCCCCCCCCCCCCCC(=O)*; Lauroyl = CCCCCCCCCCCC(=O)*; Octanoyl = CCCCCCCC(=O)*

Target: T1, bombesin receptor (Mus musculus, UniProt P21729)
T1 construct: The pancreata from one or more mice were pooled, minced, and homogenized; from tissue; host or cells: mouse pancreas (membrane pellet in A1; chopped tissue in A2)
Test: Competition at the bombesin receptor for iodinated GRP (125I-GRP), mouse pancreas membranes
Parameters: species or system mice
Details: 125I-GRP competition, read-out: Binding KD
Method: The pancreata from one or more mice were pooled, minced, and homogenized in 50 mM HEPES (pH 7.4) containing 120 mM NaCl and 5 mM KC1 at 4° C. and centrifuged at 37,500 ×g for 15 minutes. The pellet was resuspended in 50 mM HEPES (pH 7.4) containing 10 mM EDTA and 300 mM KC1 and incubated for 30 minutes at 4° C. The suspension was centrifuged as above and the pellet was washed two times in 50 mM HEPES (pH 7.4) containing protease inhibitors (10 uM phenylmethylsulfonyl fluoride, 1 uM thiorphan, 40 ug/ml bacitracin, 10 mM iodoacetimide and 4 ug/ml leupeptin), and again centrifuged. The tissue was then resuspended in incubation buffer (1 ml per 4 mg pancreas) and incubated for 15 minutes at room temperature, then 250 ul was added to each assay tube to commence the assay. The assay tubes contained incubation buffer consisting of 50 mM HEPES (pH 7.4), 0.5% BSA, protease inhibitors, 2 mM MnCl2, 1 uM somatostatin, and concentrations of ^125 I-GRP and peptides as needed in a final volume of 500 ul. The assay was allowed to proceed to equilibrium for 90 minutes at room temperature. After this time, the contents of each tube was rapidly filtered over Whatman GF/B filters presoaked in 0.1% polyethyleneimine and the filters were rapidly washed three times with ice-cold 50 mM HEPES (pH 7.4). Filter-bound radioactivity was quantitated in a gamma counter. Competition of iodinated GRP binding by test compounds or standards was expressed as a percentage of ^125 I-GRP binding in the absence of peptide. Affinity and maximal binding were calculated with Ligand (Biosoft, Cambridge, UK).

T1 sequence (P21729 whole entry): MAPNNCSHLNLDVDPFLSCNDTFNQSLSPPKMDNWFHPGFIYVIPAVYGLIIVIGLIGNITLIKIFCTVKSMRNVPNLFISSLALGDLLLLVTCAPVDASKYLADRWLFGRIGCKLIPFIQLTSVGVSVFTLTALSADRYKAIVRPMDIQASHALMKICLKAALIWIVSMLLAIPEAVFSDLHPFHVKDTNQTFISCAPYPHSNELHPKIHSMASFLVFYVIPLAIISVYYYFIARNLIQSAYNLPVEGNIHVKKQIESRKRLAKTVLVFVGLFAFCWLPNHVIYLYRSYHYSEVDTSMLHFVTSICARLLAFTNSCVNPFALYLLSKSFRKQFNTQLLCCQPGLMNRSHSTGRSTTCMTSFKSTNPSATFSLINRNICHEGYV

CCCCCCCCCCCC(=O)N[C@@H](Cc1c[nH]c2ccccc12)C(=O)N[C@@H](C)C(=O)N[C@H](C(=O)N[C@H](C)C(=O)N[C@@H](Cc1c[nH]cn1)C(N)=O)C(C)C [Nα-LaurylW A V a H #] (Lauroyl-WAV[dA]H-NH2) and CCCCCCCCCCCCCCCC(=O)N[C@@H](Cc1c[nH]c2ccccc12)C(=O)N[C@@H](C)C(=O)N[C@H](C(=O)N[C@H](C)C(=O)N[C@@H](Cc1c[nH]cn1)C(N)=O)C(C)C [Nα-PalmitylW A V a H #] (Palmitoyl-WAV[dA]H-NH2) cannot be ordered by Kd: greater than 10000 nM for the first, greater than 10000 nM for the second.

Compared with CCCCCCCC(=O)N[C@@H](CCC(N)=O)C(=O)N[C@@H](Cc1c[nH]c2ccccc12)C(=O)N[C@@H](C)C(=O)N[C@H](C(=O)N[C@H](C)C(=O)N[C@@H](Cc1c[nH]cn1)C(N)=O)C(C)C [Example 4, N-(n-Octanoyl)-Gln-Trp-Ala-Val-ala-His-NH2] (Octanoyl-QWAV[dA]H-NH2), CCCCCCCCCCCC(=O)N[C@@H](CCC(N)=O)C(=O)N[C@@H](Cc1c[nH]c2ccccc12)C(=O)N[C@@H](C)C(=O)N[C@H](C(=O)N[C@H](C)C(=O)N[C@@H](Cc1c[nH]cn1)C(N)=O)C(C)C [Nα-LaurylQ W A V a H #] (Lauroyl-QWAV[dA]H-NH2) is higher in Kd: 58 nM for the first, greater than 10000 nM for the second. The first binds more tightly here.

Going from CC(=O)N[C@@H](CCC(N)=O)C(=O)N[C@@H](Cc1c[nH]c2ccccc12)C(=O)N[C@@H](C)C(=O)N[C@H](C(=O)N[C@H](C)C(=O)N[C@@H](Cc1c[nH]cn1)C(=O)N[C@@H](CC(C)C)C(N)=O)C(C)C [Nα-AcetylQ W A V a H L #] (Ac-QWAV[dA]HL-NH2) to CC(=O)N[C@@H](CCC(N)=O)C(=O)N[C@@H](Cc1c[nH]c2ccccc12)C(=O)N[C@@H](C)C(=O)N[C@H](C(=O)N[C@H](C)C(=O)N[C@@H](Cc1c[nH]cn1)C(N)=O)C(C)C [Nα-AcetylQ W A V a H #] (Ac-QWAV[dA]H-NH2), the Kd rises from 69 nM to 1500 nM (22-fold). The first binds more tightly here.

Compared with CCCCCCCC(=O)N[C@@H](CCC(N)=O)C(=O)N[C@@H](Cc1c[nH]c2ccccc12)C(=O)N[C@@H](C)C(=O)N[C@H](C(=O)N[C@H](C)C(=O)N[C@@H](Cc1c[nH]cn1)C(=O)N[C@@H](CC(C)C)C(N)=O)C(C)C [Example 1, N-(n-Octanoyl)-Gln-Trp-Ala-Val-ala-His-Leu-NH2] (Octanoyl-QWAV[dA]HL-NH2), CCCCCCCCCCCC(=O)N[C@@H](CCC(N)=O)C(=O)N[C@@H](Cc1c[nH]c2ccccc12)C(=O)N[C@@H](C)C(=O)N[C@H](C(=O)N[C@H](C)C(=O)N[C@@H](Cc1c[nH]cn1)C(=O)N[C@@H](CC(C)C)C(N)=O)C(C)C [Example 2, N-(Lauroyl)-Gln-Trp-Ala-Val-ala-His-Leu-NH2] (Lauroyl-QWAV[dA]HL-NH2) is 64-fold higher in Kd: 5 nM for the first, 320 nM for the second. The first binds more tightly here.

Going from CCCCCCCCCCCCCCCC(=O)N[C@@H](CCC(N)=O)C(=O)N[C@@H](Cc1c[nH]c2ccccc12)C(=O)N[C@@H](C)C(=O)N[C@H](C(=O)N[C@H](C)C(=O)N[C@@H](Cc1c[nH]cn1)C(N)=O)C(C)C [Nα-PalmitylQ W A V a H #] (Palmitoyl-QWAV[dA]H-NH2) to CCCCCCCCCCCCCCCC(=O)N[C@@H](CCC(N)=O)C(=O)N[C@@H](Cc1c[nH]c2ccccc12)C(=O)N[C@@H](C)C(=O)N[C@H](C(=O)N[C@H](C)C(=O)N[C@@H](Cc1c[nH]cn1)C(=O)N[C@@H](CC(C)C)C(N)=O)C(C)C [Example 3, N-(Palmitoyl)-Gln-Trp-Ala-Val-ala-His-Leu-NH2] (Palmitoyl-QWAV[dA]HL-NH2), the Kd falls from greater than 10000 nM to 350 nM. The second binds more tightly here.

CC(=O)N[C@@H](Cc1c[nH]c2ccccc12)C(=O)N[C@@H](C)C(=O)N[C@H](C(=O)N[C@H](C)C(=O)N[C@@H](Cc1c[nH]cn1)C(N)=O)C(C)C [Nα-AcetylW A V a H #] (Ac-WAV[dA]H-NH2) and CCCCCCCC(=O)N[C@@H](Cc1c[nH]c2ccccc12)C(=O)N[C@@H](C)C(=O)N[C@H](C(=O)N[C@H](C)C(=O)N[C@@H](Cc1c[nH]cn1)C(N)=O)C(C)C [Nα-OctylW A V a H #] (Octanoyl-WAV[dA]H-NH2) cannot be ordered by Kd: greater than 10000 nM for the first, greater than 10000 nM for the second.
